Data: EP0568229A1, “Control of deposition of organic contaminants in pulp and papermaking systems” (BETZ EUROPE, INC., priority 1992, dated 1993)
Where two headings read alike, the source gives them in different places.

Key:
[1] = Stickie coupon peel strength test modified to examine the effect of dilution; conditions: Concen. 50 ppm; for 1st Dilution: 30 minutes in distilled water after the initial immersion; for No Dilution: Table X
Source text: In order to establish the efficacy of the materials used in the present invention as deposition control agents, on plastic surfaces and specifically for adhesive contaminants of the sort found in recycled fiber, a laboratory test was devised utilizing adhesive-backed tapes as stickie coupons. The stickie coupon can be fabricated from any type of adhesive tape that will not disintegrate when placed in water. For the study, tapes made from a styrenebutadiene rubber and vinylic esters were used. Both of these potential organic contaminants are known to cause problems "stickies" in secondary fiber utilization. A second coupon was fabricated from polyester film such as the product marketed as MYLAR by the DuPont Chemical Company. This material was chosen because papermachine forming fabrics are frequently made of polyester which is susceptible to considerable problem caused by stickies.
500 mL of solutions in 600 mL beakers containing various deposit control agents are placed in a water bath heated to 50 °C. The tape and the polyester film coupons are placed in the test solution so the adhesive side of the coupon faces away from the polyester film coupon. After 1 hour of immersion, the adhesive side of the stickie coupon is placed in contact with the polyester coupon and pressed to 1000 pound force.
The average peel strength of the bond formed between the tape coupon and the polyester coupon was measured with an Instron tensile tester. The peel strength of the bond formed between the stickie tape coupon and the polyester coupon was interpreted as a measure of the tendency for an organic contaminant to attach to components of a paper-machine and cause runnability or product quality problems. More specifically, this indicates the tendency of a stickies deposit to form on a plastic surface.
Papermaking consists of various processes which can be affected by sudden changes in pH, temperature, dilution (i.e., concentration), shear force, etc. Severe changes in these parameters can cause system shock which adversely impact paper production. Deposit control agents that can strongly adsorb onto the organic contaminant surface and resist the desorbing effects of dilution are highly desirable. Not only will deposition control be improved, but also the required dosage will be reduced, while negative side effects, such as forming and wet-end interferences, will be reduced or eliminated. The procedure outlined in Table VIII was modified to examine the effect of dilution on deposition control. Dilution was accomplished by immersing the adhesive tape and MYLAR in distilled water for 30 minutes after the initial immersion. This can be repeated as many times as desired.

[2] = for % Control: Table IV; for Percent Control of Pitch: Table VI
Protocol: The slurry contained 0.5% bleached hardwood Kraft fiber, approximately 2000 parts per million of the potassium salt of a fatty acid blend, approximately 200 parts per million calcium from calcium chloride and approximately 300 parts per million sodium carbonate. The slurry was maintained at 50 °C and at a pH of 11.
It was stirred gently by an overhead stirrer and subjected to ultrasonic energy for 10 minutes. The deposit weight was determined by subtracting the starting weight of the pan from the weight of the pan plus the deposit after completion of the test. […] Studies of this type were conducted using hydrophobically modified associative polymers of the type described in this invention.

Substance: dodecylphenoxypoly(ethyleneoxy) ethanol [Sample 3]
- 2nd Dilution [1]: 16
- 3rd Dilution [1]: 5
- 4th Dilution [1]: 0
- 1st Dilution [1]: 34
- No Dilution [1]: 100

Substance: octylphenoxy poly(ethyleneoxy)ethanol [Sample 1]
- 2nd Dilution [1]: 0
- 3rd Dilution [1]: 0
- 4th Dilution [1]: 0
- 1st Dilution [1]: 5
- No Dilution [1]: 100

Substance: nonylphenol ethoxylate [Sample 2]
- 2nd Dilution [1]: 2
- 3rd Dilution [1]: 0
- 4th Dilution [1]: 0
- 1st Dilution [1]: 8
- No Dilution [1]: 100

Substance: Nonyl Phenol Ethoxylate [Nonyl Phenol Ethoxylate (Surfonic N-95)]
- % Control ([2]; 10 ppm): 9%
- Percent Control of Pitch ([2]; 10 ppm): 9%
- % Control ([2]; 50 ppm): 81%
- Percent Control of Pitch ([2]; 50 ppm): 81%
